Among the data in patent US20240246977A1, “DEGRADATION OF BRUTON'S TYROSINE KINASE (BTK) BY CONJUGATION OF BTK INHIBITORS WITH E3 LIGASE LIGAND AND METHOD OF USE” (BeiGene Switzerland GmbH, priority 2021, published 2024) are DC50 and IC50 values, retold here.

A value given as a limit tells only on which side of the number the result lay.

In one assay the target is BTK (Homo sapiens, UniProt Q06187). The assay is described as follows: BTK cell degradation in TMD-8 cells, HTRF assay. It is filed as cell-based. Set-up: endogenous in cells; host or cells: TMD-8 cells. The conditions noted are these: 6 h treatment, IC50 (DC50) of BTK degradation. As to the method:
TMD-8 cells were treated with compounds diluted in 0.2% DMSO, dilution was done according to the following protocol: (1) making 500× stock solution in DMSO from 1 mM by 6-fold dilution, total 8 doses were included; (2) making 2× solution in cell culture medium by transferring 0.5 μl 500× stock solution into 125 μl medium; (3) adding 15 μl of 2× solution to cells for incubation of 6 h.
After 6 h treatment, 10 μl 14×lysis buffer was added to each well; the plate was sealed and incubated for 30 min at room temperature on a plate shaker; Once the cells was lysed, 16 μL of cell lysate were transferred to a PE 384-well HTRF detection plate; 4 μL of pre-mixed HTRF antibodies were added to each well; the plate was covered with a plate sealer, and then spinned at 1000 rpm for 1 min, then incubated overnight at room temperature; the results were read on BMG PheraStar with HTRF protocol (337 nm-665 nm-620 nm).
The inhibition (degradation) percentage of the compound was calculated by the following equation: Inhibition percentage of Compound=100−100×(Signal-low control)/(High control-low control), wherein signal=each test compound group
High control=Cell group with added DMSO and without compound, indicating microplate readings without BTK degradation;
Dmax is the maximum percentage of inhibition (degradation).
The IC50 (DC50) value of a compound can be obtained by fitting the following equation
Y=Bottom+(TOP−Bottom)/(1+((IC50/X)^hillslope))
(§1) wherein, X and Y are known values, and IC50, Hillslope, Top and Bottom are the parameters obtained by fitting with software. Y is the inhibition percentage (calculated from the equation), X is the concentration of the compound; IC50 is the concentration of the compound when the 50% inhibition is reached. The smaller the IC50 value is, the stronger the inhibitory ability of the compound is. Vice versa, the higher the IC50 value is, the weaker the ability the inhibitory ability of the compound is; Hillslope represents the slope of the fitted curve, generally around 1*; Bottom represents the minimum value of the curve obtained by data fitting, which is generally 0%±20%; Top represents the maximum value of the curve obtained by data fitting, which is generally 100%±20%. The experimental data were fitted by calculating and analyzing with Dotmatics data analysis software.
Background: In TR-FRET formats the signal depends on donor and acceptor labels being close together.

The subject of a further assay is HEK-293 cells. The assay is described as follows: HEK-293 cytotoxicity detection (CellTiter-Glo). The conditions noted are these: Homo sapiens, 72 h, 72 h incubation, CellTiter-Glo luminescence, read-out: HEK293. The format is cell-based. The procedure:
HEK-293 cells were treated with compounds diluted in 0.2% DMSO, dilution was done according to the following protocol: (1) making 500× stock solution in DMSO from 5 mM by 4-fold dilution, total 8 doses were included; (2) making 2× solution in cell culture medium by transferring 0.5 ul 500× stock solution into 125 ul medium; (3) adding 50 ul of 2× solution to cells for incubation of 72 h.
25 μl of the CellTiter-Glo®Reagent [(Promega)—Cat No. G7572] was added to each well in the 96-well plate. The contents were mixed for 2 minutes on an orbital shaker to induce cell lysis. The plate was then allowed to incubate at room temperature for 10 minutes to stabilize luminescent signal. Luminescence was recorded on BMG PheraStar with luminescence protocol.
The inhibition percentage of the compound was calculated by the following equation: Inhibition percentage of Compound=100−100×(Signal-low control)/(High control-low control), wherein signal=each test compound group
High control=Cell group with added DMSO and without compound, indicating cells proliferation with no inhibition;
Imax is the maximum percentage of inhibition.
The IC50 value of a compound can be obtained by fitting the following equation
as §1, with “Wherein,” for “wherein,”
Background: ATP-based viability assays read luminescence as a measure of living cells.

As usually defined, the DC50 is the concentration at which degradation of the target reaches its halfway point. Higher therefore signals degradation only at high concentration.

Chain of BTK (Q06187 whole entry): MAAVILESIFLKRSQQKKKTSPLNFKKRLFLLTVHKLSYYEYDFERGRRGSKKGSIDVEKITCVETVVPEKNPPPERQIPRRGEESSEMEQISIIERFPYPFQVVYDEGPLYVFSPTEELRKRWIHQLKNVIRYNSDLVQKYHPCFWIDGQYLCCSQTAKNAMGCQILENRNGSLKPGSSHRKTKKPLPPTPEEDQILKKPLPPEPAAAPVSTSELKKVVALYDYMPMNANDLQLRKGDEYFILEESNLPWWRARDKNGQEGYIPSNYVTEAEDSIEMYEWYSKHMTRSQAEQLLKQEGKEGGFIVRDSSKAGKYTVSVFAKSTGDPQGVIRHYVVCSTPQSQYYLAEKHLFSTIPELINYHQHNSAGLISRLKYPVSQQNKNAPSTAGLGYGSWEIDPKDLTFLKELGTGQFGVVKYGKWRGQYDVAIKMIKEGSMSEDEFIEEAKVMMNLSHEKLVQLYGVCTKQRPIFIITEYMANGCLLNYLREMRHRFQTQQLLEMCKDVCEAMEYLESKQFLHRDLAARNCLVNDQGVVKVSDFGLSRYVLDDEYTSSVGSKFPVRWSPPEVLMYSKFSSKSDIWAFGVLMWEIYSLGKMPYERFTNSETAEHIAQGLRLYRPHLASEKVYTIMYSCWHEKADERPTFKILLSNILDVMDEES

Turning to `Cc1cccc(NC(=O)c2ccc(-c3nn4c(c3C(N)=O)Nc3ccc(N5CCN(CC6CCN(c7ccc(N8CCC(=O)NC8=O)cc7)CC6)CC5)cc3CC4)c(Cl)c2)n1` [Example B20, 2-(2-chloro-4-((6-methylpyridin-2-yl)carbamoyl)phenyl)-7-(4-((1-(4-(2,4-dioxotetrahydropyrimidin-1(2H)-yl)phenyl)piperidin-4-yl)methyl)piperazin-1-yl)-9,10-dihydro-4H-benzo[d]pyrazolo[1,5-a][1,3]diazepine-3-carboxamide], at BTK, the DC50 worked out at 0.469 nM. Also, the IC50 with HEK-293 cells was more than 10000 nM.

The molecule `COc1ncccc1C(=O)NCc1ccc(-c2nn3c(c2C(N)=O)Nc2ccc(N4CCN(CC5CCN(c6ccc(N7CCC(=O)NC7=O)cc6)CC5)CC4)cc2CC3)cc1C` [Example C34, 7-(4-((1-(4-(2,4-dioxotetrahydropyrimidin-1(2H)-yl)phenyl)piperidin-4-yl)methyl)piperazin-1-yl)-2-(4-((2-methoxynicotinamido)methyl)-3-methylphenyl)-9,10-dihydro-4H-benzo[d]pyrazolo[1,5-a][1,3]diazepine-3-carboxamide] had a DC50 on BTK of 3.91 nM. Also, the IC50 in the assay with HEK-293 cells is more than 10000 nM.

Take `Cc1c(C(=O)Nc2cscn2)ccc(-c2nn3c(c2C(N)=O)Nc2ccc(N4CCN(CC5CCN(c6ccc(CN7CCC(=O)NC7=O)cc6)CC5)CC4)cc2CC3)c1F` [Example B98, 7-(4-((1-(4-((2,4-dioxotetrahydropyrimidin-1(2H)-yl)methyl)phenyl)piperidin-4-yl)methyl)piperazin-1-yl)-2-(2-fluoro-3-methyl-4-(thiazol-4-ylcarbamoyl)phenyl)-9,10-dihydro-4H-benzo[d]pyrazolo[1,5-a][1,3]diazepine-3-carboxamide]: it took 1.1 nM to reach half-maximal degradation on BTK (DC50). In addition, the IC50 in the assay on HEK-293 cells was more than 10000 nM.

For `Cc1cccc(NC(=O)c2ccc(-c3nn4c(c3C(N)=O)Nc3ccc(N5CCN(CCc6cc(F)c(C7CCC(=O)NC7=O)c(F)c6)CC5)cc3CC4)c(F)c2C)n1` (stereo not drawn) [Example B62, 7-(4-(4-(2,6-dioxopiperidin-3-yl)-3,5-difluorophenethyl)piperazin-1-yl)-2-(2-fluoro-3-methyl-4-((6-methylpyridin-2-yl)carbamoyl)phenyl)-9,10-dihydro-4H-benzo[d]pyrazolo[1,5-a] [1,3]diazepine-3-carboxamide], half-maximal degradation at BTK (DC50) was put at 1.7 nM. For the same molecule, the IC50 in the assay with HEK-293 cells is more than 10000 nM.

Regarding `COc1ccc(C(F)(F)F)cc1C(=O)NCc1ccc(-c2nn3c(c2C(N)=O)Nc2ccc(N4CCN(CC5CCN(c6ccc(N7CCC(=O)NC7=O)cc6)CC5)CC4)cc2CC3)c(F)c1F` [Example C28, 2-(2,3-difluoro-4-((2-methoxy-5-(trifluoromethyl)benzamido)methyl)phenyl)-7-(4-((1-(4-(2,4-dioxotetrahydropyrimidin-1(2H)-yl)phenyl)piperidin-4-yl)methyl)piperazin-1-yl)-9,10-dihydro-4H-benzo[d]pyrazolo[1,5-a][1,3]diazepine-3-carboxamide], the DC50 at BTK was determined as 1.15 nM. Moreover, in the assay on HEK-293 cells, the IC50 is more than 10000 nM.

`COc1ccccc1C(=O)NCc1ccc(-c2nn3c(c2C(N)=O)Nc2ccc(N4CCN(CC5CCN(c6ccc(N7CCC(=O)NC7=O)cc6)CC5)CC4)cc2CC3)cc1C` [Example C32, 7-(4-((1-(4-(2,4-dioxotetrahydropyrimidin-1(2H)-yl)phenyl)piperidin-4-yl)methyl)piperazin-1-yl)-2-(4-((2-methoxybenzamido)methyl)-3-methylphenyl)-9,10-dihydro-4H-benzo[d]pyrazolo[1,5-a][1,3]diazepine-3-carboxamide] returned a DC50 on BTK of 3.1 nM. The IC50 in the assay with HEK-293 cells is more than 10000 nM.

For `Cc1cccc(NC(=O)c2ccc(-c3nn4c(c3C(N)=O)Nc3ccc(N5CCN(CC6CCN(c7ccc(N8CCC(=O)NC8=O)cc7)CC6)CC5)cc3CC4)cc2Cl)n1` [Example B25, 2-(3-chloro-4-((6-methylpyridin-2-yl)carbamoyl)phenyl)-7-(4-((1-(4-(2,4-dioxotetrahydropyrimidin-1(2H)-yl)phenyl)piperidin-4-yl)methyl)piperazin-1-yl)-9,10-dihydro-4H-benzo[d]pyrazolo[1,5-a][1,3]diazepine-3-carboxamide], it took 0.415 nM to reach half-maximal degradation on BTK (DC50). The IC50 in the assay on HEK-293 cells is more than 10000 nM.

Take `Cc1cccc(NC(=O)c2cnc(-c3nn4c(c3C(N)=O)Nc3ccc(N5CCN(CC6CCN(c7ccc(N8CCC(=O)NC8=O)cc7)CC6)CC5)cc3CC4)cc2C)n1` [Example B36, 7-(4-((1-(4-(2,4-dioxotetrahydropyrimidin-1(2H)-yl)phenyl)piperidin-4-yl)methyl)piperazin-1-yl)-2-(4-methyl-5-((6-methylpyridin-2-yl)carbamoyl)pyridin-2-yl)-9,10-dihydro-4H-benzo[d]pyrazolo[1,5-a][1,3]diazepine-3-carboxamide]: the DC50 at BTK amounted to 47.2 nM. In addition, the IC50 in the assay on HEK-293 cells was more than 10000 nM.

`COc1ccc(C)cc1C(=O)NCc1ccc(-c2nn3c(c2C(N)=O)Nc2ccc(N4CCN(CC5CCN(c6ccc(N7CCC(=O)NC7=O)cc6)CC5)CC4)cc2CC3)cc1C` [Example C39, 7-(4-((1-(4-(2,4-dioxotetrahydropyrimidin-1(2H)-yl)phenyl)piperidin-4-yl)methyl)piperazin-1-yl)-2-(4-((2-methoxy-5-methylbenzamido)methyl)-3-methylphenyl)-9,10-dihydro-4H-benzo[d]pyrazolo[1,5-a][1,3]diazepine-3-carboxamide] returned a DC50 on BTK of 8.52 nM. Also, the IC50 with HEK-293 cells is more than 10000 nM.

At BTK, `NC(=O)c1c(-c2ccc(OCc3ccccc3)cc2)nn2c1Nc1ccc(N3CCN(CC4CCN(c5ccc(N6CCC(=O)NC6=O)cc5)CC4)CC3)cc1CC2` [Example A38, 2-(4-(benzyloxy)phenyl)-7-(4-((1-(4-(2,4-dioxotetrahydropyrimidin-1(2H)-yl)phenyl)piperidin-4-yl)methyl)piperazin-1-yl)-9,10-dihydro-4H-benzo[d]pyrazolo[1,5-a][1,3]diazepine-3-carboxamide] came in with a DC50 of 1.12 nM. In addition, the IC50 in the assay with HEK-293 cells is 185 nM.

In turn, `NC(=O)c1c(-c2ccc(Oc3ccccc3)cc2)nn2c1Nc1ccc(C(=O)NC3CCN(c4ccc5c(c4)C(=O)N(C4CCC(=O)NC4=O)C5=O)CC3)cc1CC2` (stereo not drawn) [Example A9, N7-(1-(2-(2,6-dioxopiperidin-3-yl)-1,3-dioxoisoindolin-5-yl)piperidin-4-yl)-2-(4-phenoxyphenyl)-9,10-dihydro-4H-benzo[d]pyrazolo[1,5-a][1,3]diazepine-3,7-dicarboxamide] came in with a DC50 on BTK of 2.26 nM. In addition, the IC50 in the assay on HEK-293 cells came to 65.6 nM.

Molecule `Cc1cc(-c2nn3c(c2C(N)=O)Nc2ccc(N4CCN(CC5CCN(c6ccc(N7CCC(=O)NC7=O)cc6)CC5)CC4)cc2CC3)cc(C)c1C(=O)Nc1cc(C(F)(F)F)ccn1` [Example B7, 2-(3,5-dimethyl-4-((4-(trifluoromethyl)pyridin-2-yl)carbamoyl)phenyl)-7-(4-((1-(4-(2,4-dioxotetrahydropyrimidin-1(2H)-yl)phenyl)piperidin-4-yl)methyl)piperazin-1-yl)-9,10-dihydro-4H-benzo[d]pyrazolo[1,5-a][1,3]diazepine-3-carboxamide] displayed a DC50 on BTK of 5.37 nM. In the assay on HEK-293 cells, the IC50 is more than 10000 nM.
